The values that follow come from patent US12083114B2, “Inhibitors of SARM1 in combination with neuro-protective agents” (Disarm Therapeutics, Inc., priority 2018, dated 2024).

This experiment relates to DRG axons. Briefly: Axon degeneration assay: SARM1 inhibitor with DLK inhibitor, mouse DRG drop culture, manual axotomy. Format: cell-based. To be noted: 16 hours post-axotomy. On the procedure:
Mouse dorsal root ganglion neurons (DRGs) were dissected out of E12.5 CD1 mice (50 ganglia per embryo) and incubated with 0.5% Trypsin solution containing 0.02% EDTA (Gibco) at 37° C. for 15 min. The cells were then triturated by gentle pipetting and washed 3 times with DRG growth medium (Neurobasal medium (Gibco) containing 2% B27 (Invitrogen), 100 ng/ml 2.5S NGF (Harland Bioproducts), […] 5-fluoro-2′ deoxyuridine (Sigma), penicillin, and streptomycin). Cells were suspended in the DRG growth medium. DRG drop cultures were created by spotting 5000 cells/well into the center of each well of a 96-well tissue culture plate coated with poly-D-Lysine (0.1 mg/ml; Sigma) and laminin ([…]; Invitrogen). Cells were allowed to adhere to the plates in a humidified tissue culture incubator (5% CO2) for 15 min and then DRG growth medium was gently added ([…] well). DRG neurons were maintained in neurobasal medium supplemented with L-glutamine (Invitrogen), 2% (vol/vol) B27 (Invitrogen), 50 ng/mL NGF (Harlan Laboratories), and 1 μM 5-fluoro-2′deoxyuridine plus 1 μM uridine (Sigma) to induce death of mitotic cells. DRG neurons were then seeded on plates pre-coated with poly-D-lysine and laminin.
2 hours prior to axotomy, DRG cultures were treated with SARM1 inhibitors, in the continued presence of the DLK inhibitor. […] Isoquinoline SARM1 inhibitors tested included I-26 and I-86, while isothiazole SARM1 inhibitors tested included II-6 and II-32. The SARM1 inhibitors were tested using concentrations ranging from 0.1 to 30 μM.
A manual axotomy was performed at time 0 by transecting the axons of the DRG neurons with a blade. After the axotomy, DRG cultures remained exposed to the SARM1 inhibitor alone, DLK inhibitor alone, or the combination of SARM1 inhibitor and DLK inhibitor. At 16 hours, DRG cultures were fixed in a buffered solution containing 1% PFA and sucrose and stored at 4° C. prior to imaging. Bright-field images of DRG axons and cell bodies were collected using the 20× water immersion lens of a Phenix automated confocal microscope (PerkinElmer) and quantitation of axonal damage was performed using in-house developed scripts (Acapella, PerkinElmer). The effect of DLK inhibitor alone in protecting distal axons from fragmentation was determined at concentrations of 100 nM and 300 nM. The effect of combining the DLK inhibitor with varying concentrations of a SARM1 inhibitor was compared to the individual protective effects of either 100 nM or 300 nM of DLK inhibitor alone or an equivalent concentration of a SARM1 inhibitor alone.

Setting [1] is: SARM1 inhibitor alone, 1.1 μM, FIG. 1B/2B.

As to `N#Cc1c(O)nsc1Nc1ccccc1C(F)(F)F` [II-6], the “axonal protection (degeneration index of DRG axons)” value is, setting by setting: (SARM1 inhibitor alone, 3.3 μM, FIG. 3B) “modest level of protection”; (SARM1 inhibitor alone, 1.1 or 3.3 μM, FIG. 3A) “modest, but statistically significant axonal protection”.
Regarding `N#Cc1ccnc(Nc2cc(C3CCN(C4COC4)CC3)cc(N3CCC(F)(F)C3)n2)c1` [DLK inhibitor, 2-((6-(3,3-difluoropyrrolidin-1-yl)-4-(1-(oxetan-3-yl)piperidin-4-yl)pyridin-2-yl)amino)isonicotinonitrile, reference compound], the “axonal protection (degeneration index of DRG axons)” value is listed as “no axonal protection” (100 nM DLK inhibitor alone) and “modest but statistically significant level of axonal protection” (300 nM DLK inhibitor alone).
Regarding `COc1cc(Br)c2ccncc2c1` [I-86], the “axonal protection (degeneration index of DRG axons)” value under setting [1] was “modest level of axonal protection” and the “axonal protection (degeneration index of DRG axons)” value (SARM1 inhibitor alone, 1.1 μM, FIG. 2A) is “a small, but statistically significant amount of axonal protection”.
Consider `Ic1cccc2cnccc12` [I-26], for which the “axonal protection (degeneration index of DRG axons)” value is reported as “modest level of protection” under setting [1] and “significant axonal protection over all tested concentrations” (SARM1 inhibitor alone, 1.1, 3.3, 10 or 30 μM (all tested concentrations), FIG. 1A).
Consider `COCCn1sc(Nc2ccccc2C(F)(F)F)c(C#N)c1=O` [II-32], for which the “axonal protection (degeneration index of DRG axons)” value is “modest but not statistically significant axonal protection” (SARM1 inhibitor alone, 0.11, 0.33 or 1.1 μM, FIG. 4A); “only slight and not statistically significant protection” (SARM1 inhibitor alone, 0.11, 0.33 or 1.1 μM, FIG. 4B).
